In US9795656B2, “Treatment of ocular diseases” (MARLYN NUTRACEUTICALS INC, priority 2006, dated 2017):
Entries after “also recorded” stand apart in the source; their conditions may differ.

Assays:
HUVEC [1] = assay: MTT assay with treated HUVEC (antiproliferative activity); type: cell-based, Human; conditions: for inhibition of VEGF stimulated proliferation (MTT): VEGF stimulated HUVEC, FIG. 5; for inhibition of VEGF stimulated proliferation (MTT) / % growth (MTT) / antiproliferative effect (MTT), in words: 48 hours; for % growth (MTT): at concentrations as low as 25 μg/ml; for antiproliferative effect (MTT), in words: concentration-response
Protocol: The antiproliferative activity of bromelain, nattokinase and papain and their mixtures was assessed using an 3-(4,5-dimethylthiazol-2-yl)-2,5-diphenyltetrazoliumbromide (MTT) assay. […] Cells were incubated further 48 hours at 37° C./95% humidity. The MTT Assay was carried out using an EZ4U MTT Kit (Biomedica, Austria; according to the instructions of the manufacturer). Optical density was measured at 450 nm with a reference wavelength of 620 nm. Results are expressed as % proliferation with 100% being the proliferation of the VEGF treated control.
To assess a possible antiproliferative activity of Rutosid an 3-(4,5-dimethylthiazol-2-yl)-2,5-diphenyltetrazoliumbromide (MTT) Assay was used. […] Cells were incubated further 48 hours at 37° C./95% humidity. The MTT-Assay was carried out using a EZ4U MTT Kit (Biomedica, Austria) according to the instructions of the manufacturer) Optical density was measured at 450 nm with a reference wavelength of 620 nm. Results are expressed as % proliferation with 100% being the proliferation of the VEGF treated control.

HUVEC [2] = system: HUVEC
Protocol: (§1) The antiproliferative activity of bromelain, nattokinase and papain was assessed using a Lactate Dehydrogenase (LDH) Assay. Human Umbilical Vein Endothelial Cells (HUVEC) from semi-confluent cultures were harvested by treatment with trypsin, seeded at a density of 2500 cells/well into 96-well microplates, previously coated with human fibronectin. In oder to allow proper attachment, cells were incubated for 24 hours in Endothelial Basal medium 2MV (Cambrex Biochemicals) containing 10% Fetal Calf Serum, 60 μg/ml Endothelial cell Growth Supplement, hrEGF, hrFGF2, hrIGF, hrVEGF, Ascorbic Acid and Heparin. After attachment, cells were starved by incubation at 37° C./95% humidity in Medium 199+10% Fetal Calf Serum (FCS) without growth factors. After 24 hours, the supernatant was replaced by Medium 199 containing 10% FCS, VEGF and varying concentrations of the enzymes. After an incubation period of 48 hours, supernatant was harvested and an LDH assay was performed according to the instructions of the manufacturer (Promega, Germany): 50 μl aliquots from all wells were transferred to a fresh 96-well flat-bottom (enzymatic assay) plate. The Assay Buffer was added to the Substrate Mix and mixed gently. 50 μl of reconstituted Substrate Mix was added to each well. The plate was incubated for 30 minutes at room temperature. 50 μl of Stop Solution was added to each well. Within one hour, optical density was measured at 490 nm with a reference wavelength of 620 nm. Results are expressed as % untreated control.
(§2) To test a possible cytotoxic activity of rutosid an Lactate Dehydrogenase (LDH) Assay was used. Human Umbilical Vein Endothelial Cells (HUVEC) from semi-confluent cultures were harvested by treatment with trypsin, seeded at a density of 2500 cells/well into 96-well microplates, previously coated with human fibronectin. In oder to allow proper attachment, cells were incubated for 24 hours in Endothelial Basal medium 2MV (Cambrex Biochemicals) containing 10% Fetal Calf Serum, 60 μg/ml Endothelial cell Growth Supplement, hrEGF, hrFGF-2, hrIGF, hrVEGF, ascorbic acid and heparin. After attachment, cells were starved by incubation at 37° C./95% humidity in Medium 199+10% Fetal Calf Serum (FCS) without growth factors. After 24 hours, the supernatant was replaced by Medium 199 containing 10% FCS, VEGF and varying concentrations of the enzymes. After an incubation period of 48 hours, supernatant was harvested and an LDH assay was performed according to the instructions of the manufacturer (Promega, Germany): 50 μl aliquots from all wells where transferred to a fresh 96-well flat-bottom (enzymatic assay) plate. […] Within one hour, optical density was measured at 490 nm with a reference wavelength of 620 nm. Results are expressed as % untreated control.

HUVEC [3] = assay: Tube formation assay on Matrigel (antiangiogenic activity); type: cell-based, Human; conditions: for inhibition of VEGF induced tube formation: FIG. 3, FIG. 7 right; for inhibition of spontaneous tube formation: no VEGF, FIG. 7 left; for ability to inhibit or prevent angiogenesis: general statement on proteases of mammalian origin
Protocol: Methods: Antiangiogenic activity was assessed using a tube formation assay. Growth factor reduced Matrigel (Becton Dickinson, Vienna) was thawed at a temperature of 4° C. 50 μl per well were pipetted into the wells of a 96 well microtiter plate. The plate was left at 4° C. for 24 hours. Prior to the experiment, the plate was incubated for 30-60 minutes at 37° C. to solidify the gel. HUVEC were harvested by treatment with trypsin and seeded into Matrigel coated 96 well microplates at a density of 20.000 cells per well in Endothelial Growth Medium 2(MV) (Lonza, Brussels) supplemented with ascorbic acid and hydrocortisone according to the instructions of the manufacturer as well as […] heparin and 1% Fetal Bovine Serum. Drugs and VEGF were added to the desired concentrations. After further 16 hrs to 18, wells were photographed. The total length of tubes was determined using the ImageJ Software, measured by the Neuron Length Determination Plugin.

HUVEC [4] = assay: LDH release into supernatant of treated HUVEC (toxicity test); conditions: up to a level of including 25 μg/ml; 2 days of incubation
Protocol: as §1, §2

C[C@@H]1O[C@@H](OC[C@H]2O[C@@H](Oc3c(-c4ccc(O)c(O)c4)oc4cc(O)cc(O)c4c3=O)[C@H](O)[C@@H](O)[C@@H]2O)[C@H](O)[C@H](O)[C@H]1O [Rutosid]
inhibition of VEGF stimulated proliferation (MTT) (HUVEC [1]): No inhibition of proliferation
inhibition of VEGF stimulated proliferation (MTT) (HUVEC [1]; listed as rutosid): does not inhibit
toxicity in HUVEC (LDH), overall (HUVEC [2]): negligible

Bromelain
% growth (MTT) (HUVEC [1]; 100% = VEGF treated control): 75%
antiproliferative effect (MTT), in words (HUVEC [1]): clear antiproliferative effect
inhibition of VEGF induced tube formation (HUVEC [3]): inhibited formation of tubes almost to the same extend as in untreated HUVEC
inhibition of VEGF induced tube formation (HUVEC [3]; listed as bromelain): significant decrease
inhibition of spontaneous tube formation (HUVEC [3]): inhibited formation of tubes
toxic effects on HUVEC (LDH release) (HUVEC [4]): did not show toxic effects

Nattokinase
antiproliferative effect (MTT), in words (HUVEC [1]): clear antiproliferative effect
inhibition of VEGF induced tube formation (HUVEC [3]): significant decrease; also recorded: inhibited formation of tubes almost to the same extend as in untreated HUVEC
inhibition of spontaneous tube formation (HUVEC [3]): inhibited formation of tubes
toxic effects on HUVEC (LDH release) (HUVEC [4]): did not show toxic effects

chymotrypsin [reference compound]
inhibition of VEGF induced tube formation (HUVEC [3]): but not chymotrypsin or trypsin inhibited formation of tubes
ability to inhibit or prevent angiogenesis (HUVEC [3]): not able to inhibit or prevent angiogenesis
inhibition of spontaneous tube formation (HUVEC [3]): but not chymotrypsin or trypsin inhibited formation of tubes

ficin
inhibition of VEGF induced tube formation (HUVEC [3]): significant decrease; also recorded: inhibited formation of tubes almost to the same extend as in untreated HUVEC
inhibition of spontaneous tube formation (HUVEC [3]): inhibited formation of tubes

serrapeptase
inhibition of VEGF induced tube formation (HUVEC [3]): significant decrease; also recorded: inhibited formation of tubes almost to the same extend as in untreated HUVEC
inhibition of spontaneous tube formation (HUVEC [3]): inhibited formation of tubes

trypsin [reference compound]
inhibition of VEGF induced tube formation (HUVEC [3]): but not chymotrypsin or trypsin inhibited formation of tubes
ability to inhibit or prevent angiogenesis (HUVEC [3]): not able to inhibit or prevent angiogenesis
inhibition of spontaneous tube formation (HUVEC [3]): but not chymotrypsin or trypsin inhibited formation of tubes

B1: Papain (protein, UniProt P00784 134-345, looked up)
Papain: IPEYVDWRQKGAVTPVKNQGSCGSCWAFSAVVTIEGIIKIRTGNLNEYSEQELLDCDRRSYGCNGGYPWSALQLVAQYGIHYRNTYPYEGVQRYCRSREKGPYAAKTDGVRQVQPYNEGALLYSIANQPVSVVLEAAGKDFQLYRGGIFVGPCGNKVDHAVAAVGYGPNYILIKNSWGTGWGENGYIRIKRGTGNSYGVCGLYTSSFYPVKN
% growth (MTT) (HUVEC [1]; 100% = VEGF treated control): 75%
% Proliferation (HUVEC [1]; combinations of bromelain, nattokinase and papain in presence of VEGF, 100% = VEGF treated control): 75.45%
antiproliferative effect (MTT), in words (HUVEC [1]): clear antiproliferative effect
inhibition of VEGF induced tube formation (HUVEC [3]): significant decrease; also recorded: inhibited formation of tubes almost to the same extend as in untreated HUVEC
% tube formation (HUVEC [3]; in presence of VEGF, 100% = samples treated with VEGF only): 60.14%
inhibition of spontaneous tube formation (HUVEC [3]): inhibited formation of tubes
toxic effects on HUVEC (LDH release) (HUVEC [4]): did not show toxic effects
